Test [1] concerns vitamin D-deficient rats. Briefly: Bone calcium mobilization (serum calcium). Format: in vivo, Sprague-Dawley rats. The text has this:
Intestinal Calcium Transport and Bone Calcium Mobilization
Male, weanling Sprague-Dawley rats were placed on Diet 11 (Suda et al, J. Nutr. 100:1049, 1970) (0.47% Ca)+vitamins AEK for one week followed by Diet 11 (0.02% Ca)+vitamins AEK for 3 weeks. The rats were then switched to the same diet containing 0.47% Ca for one week followed by two weeks on the same diet containing 0.02% Ca. Dose administration began during the last week on 0.02% calcium diet. Four consecutive ip doses were given approximately 24 hours apart. Twenty-four hours after the last dose, blood was collected from the severed neck and the concentration of serum calcium determined by atomic absorption spectrometry as a measure of bone calcium mobilization. The first 10 cm of the intestine was also collected for intestinal calcium transport analysis using the everted gut sac method.

Test [2] has as its system Human promyelocytic leukemia (HL60) cells. In words: HL-60 differentiation (nitro blue tetrazolium reduction). Conditions: four days, FIG. 2. Format: cell-based. The protocol: The study drugs were dissolved in ethanol and the concentrations determined using UV spectrophotometry. Serial dilutions were prepared so that a range of drug concentrations could be tested without changing the final concentration of ethanol (≦0.2%) present in the cell cultures.
Human promyelocytic leukemia (HL60) cells were grown in RPMI-1640 medium containing 10% fetal bovine serum. The cells were incubated at 37° C. in the presence of 5% CO2.
HL60 cells were plated at 1.2×10^5 cells/ml. Eighteen hours after plating, cells in duplicate were treated with drug. Four days later, the cells were harvested and a nitro blue tetrazolium reduction assay was performed (Collins et al., 1979; J. Exp. Med. 149:969-974). The percentage of differentiated cells was determined by counting a total of 200 cells and recording the number that contained intracellular black-blue formazan deposits. Verification of differentiation to monocytic cells was determined by measuring phagocytic activity (data not shown).

The test system of test [3] is 24-hydroxylase (24 Ohase) gene promoter in ROS 17/2.8 (bone) cells. Briefly: In vitro transcription assay (24-hydroxylase promoter luciferase reporter). Format: cell-based. As to conditions: for EC50: ROS 17/2.8 cells, 24-hydroxylase promoter luciferase, 16 h, FIG. 3, read-out: EC50, transcriptional activity in bone cells. The protocol:
In Vitro Transcription Assay Transcription activity was measured in ROS 17/2.8 (bone) cells that were stably transfected with a 24-hydroxylase (24 Ohase) gene promoter upstream of a luciferase reporter gene (Arbour et al., 1998). Cells were given a range of doses. Sixteen hours after dosing the cells were harvested and luciferase activities were measured using a luminometer. RLU=relative luciferase units.
(Reporter assays use an easily measured gene product as a stand-in for the process of interest.)

Test [4] concerns the target T1, full-length recombinant rat vitamin D receptor (Rattus norvegicus, UniProt P13053).
T1 sequence (P13053 1-423): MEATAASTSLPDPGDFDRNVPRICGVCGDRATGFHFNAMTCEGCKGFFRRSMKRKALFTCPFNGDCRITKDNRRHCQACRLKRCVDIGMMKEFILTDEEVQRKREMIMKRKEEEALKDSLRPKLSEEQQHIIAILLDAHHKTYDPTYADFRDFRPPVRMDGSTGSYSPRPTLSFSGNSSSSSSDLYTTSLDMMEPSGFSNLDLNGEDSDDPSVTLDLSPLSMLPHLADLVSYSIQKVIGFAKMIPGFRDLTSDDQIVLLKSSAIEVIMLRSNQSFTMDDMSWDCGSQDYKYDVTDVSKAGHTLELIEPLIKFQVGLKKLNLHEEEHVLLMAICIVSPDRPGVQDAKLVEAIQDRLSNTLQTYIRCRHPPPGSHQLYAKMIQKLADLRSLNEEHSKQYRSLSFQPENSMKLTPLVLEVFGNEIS
In words: biochemical.

Test [5] relates to vitamin D-deficient rats. Briefly: Intestinal calcium transport (everted gut sac method). The class given is in vivo, Sprague-Dawley rats. As to conditions: low calcium diet, 4 ip doses, relative to 1,25(OH)2D3, FIG. 5. The text has this:
Dose administration began during the last week on 0.02% calcium diet. […] The first 10 cm of the intestine was also collected for intestinal calcium transport analysis using the everted gut sac method.

This note sets out measurements from patent US8987235B2, “N-cyclopropyl-(20R)-2-methylene-19,26,27-trinor-25-aza-vitamin D analogs and their uses” (Wisconsin Alumni Research Foundation, priority 2011, dated 2015).

For orientation: EC50 means the concentration needed to bring the measured effect to its halfway point. As usually defined, the Ki is a dissociation constant, usually derived from enzyme kinetics or from competition with a known ligand.

“Also recorded” adds a separate entry of the source.

For the molecule `C=C1/C(=C\C=C2/CCC[C@]3(C)[C@@H]([C@H](C)CCCC(C)(C)O)CC[C@@H]23)C[C@@H](O)C[C@@H]1O` [1α,25-dihydroxyvitamin D3, reference compound], the “serum calcium levels (in words)” value with vitamin D-deficient rats [1] (87 pmol and 780 pmol dosages, rats on 0.02% Ca diet, listed as 1,25(OH)2D3) was “increased serum calcium levels; also recorded: significant increases in serum calcium”. Besides, the EC50 in test [2] amounted to 2 nM; in test [3], 0.2 nM.
In the case of `C=C1[C@H](O)CC(=C/C=C2\CCC[C@]3(C)[C@@H]([C@H](C)CCCNC4CC4)CC[C@@H]23)C[C@H]1O` [CPA-1, N-cyclopropyl-(20R)-2-methylene-19,26,27-trinor-25-aza-1α-hydroxyvitamin D3], the “times less potent than 1,25(OH)2D3 in releasing bone calcium stores” value in the test with vitamin D-deficient rats [1] (rats, low calcium diet, 4 ip doses, relative to 1,25(OH)2D3, FIG. 4) is given as “about 400 times”. Besides, in test [4], the Ki turned out to be 3 nM. For the same molecule, the “times less potent than 1,25(OH)2D3 in promoting intestinal calcium transport” value with vitamin D-deficient rats [5] was “about 20 times”. Also, the EC50 in test [2] (Homo sapiens, HL-60, 96 h) stood at 3 nM; in test [3], 3 nM. In addition, the “times less potent than 1,25(OH)2D3 in increasing transcription of the 24-hydroxylase gene” value in test [3] (bone cells, relative to 1,25(OH)2D3) is “about 10 times”.
